Measured values taken from patent publication US5342942A, “Pyrazoloquinazolone derivatives as neurotrophic agents” (Warner-Lambert Company, priority 1993, dated 1994).
Where a name gives a salt, the structure may show the parent alone.

Test system: full length p75 receptor
Test: inhibition of ^125 I-NGF binding to full length p75 receptor expressed in CHO cells that lack trk (FIG. 2)
Conditions: CHO cells that lack trk expression
Excerpt: (§1) In principle, a compound may inhibit the binding of NGF to the p75 receptor by interacting with either protein. The compounds of the present invention are studied further as exemplified here with the compound of Example 3.

SMILES	prevention of binding of ^125 I-NGF to full length p75 receptor
Cn1c2ccc(NC(=O)c3ccccc3)cc2c(=O)n2nc(C(=O)O)cc12 [Example 3, 7-(Benzoylamino)-4,9-dihydro-4-methyl-9-oxopyrazolo-[5,1-b]quinazoline-2-carboxylic acid]	completely prevents binding of ^125 I-NGF to full length p75 receptor

Test system: p75
Test: inhibition of crosslinking of ^125 I-NGF to p75 (FIG. 4)
Format: binding
Conditions: not given
Excerpt: as §1

SMILES	inhibition of crosslinking of ^125 I-NGF to p75
Cn1c2ccc(NC(=O)c3ccccc3)cc2c(=O)n2nc(C(=O)O)cc12 [Example 3, 7-(Benzoylamino)-4,9-dihydro-4-methyl-9-oxopyrazolo-[5,1-b]quinazoline-2-carboxylic acid]	can inhibit the crosslinking of ^125 I-NGF to p75

Test system: NGF receptors
Test: direct binding to NGF receptors with radioiodinated derivative of Compound 3 (FIG. 5)
Conditions: utilizing a radioiodinated derivative of Compound 3 (corresponding to Example 3j)
Excerpt: as §1

direct binding to NGF receptors	SMILES
does not bind to NGF receptors directly	Cn1c2ccc(NC(=O)c3ccccc3)cc2c(=O)n2nc(C(=O)O)cc12 [Example 3, 7-(Benzoylamino)-4,9-dihydro-4-methyl-9-oxopyrazolo-[5,1-b]quinazoline-2-carboxylic acid]

Test system: NGF
Test: interaction with NGF bound to a sepharose support (FIG. 6)
Format: binding
Conditions: not given
Excerpt: as §1

SMILES	specific interaction with NGF
Cn1c2ccc(NC(=O)c3ccccc3)cc2c(=O)n2nc(C(=O)O)cc12 [Example 3, 7-(Benzoylamino)-4,9-dihydro-4-methyl-9-oxopyrazolo-[5,1-b]quinazoline-2-carboxylic acid]	specific interaction between Compound 3 and NGF

Test system: PC12 cells that express both p75 and trk
Test: inhibition of ^125 I-NGF binding in PC12 cells that express both p75 and trk (FIG. 3)
Conditions: p75 about 80% and trk about 20% of total NGF receptors
Excerpt: as §1

SMILES	block of ^125 I-NGF binding in PC12 cells
Cn1c2ccc(NC(=O)c3ccccc3)cc2c(=O)n2nc(C(=O)O)cc12 [Example 3, 7-(Benzoylamino)-4,9-dihydro-4-methyl-9-oxopyrazolo-[5,1-b]quinazoline-2-carboxylic acid]	about 80%

Molecular target: T1, extracellular domain of the p75 receptor (Homo sapiens)
T1 construct: purchased Chiron Corporation, Emeryville, Calif; (originally); also commercially available from Austral Biologicals, Inc. (San Diego, Calif.)
Test: inhibition of ^125 I-NGF binding to the extracellular domain of the p75 receptor (truncated form, residues 1-222, microtiter plate)
Conditions: 2 nM ^125 I-NGF, 2 hours at room temperature; read-out: Concentration (IC50, nM): inhibition of ^125 I-NGF binding to the extracellular domain of the p75 receptor
Experimental: (§2) Assays of novel compounds are performed by measuring the compounds' ability to inhibit the binding of NGF to the NGF p75 receptor, using a truncated form (Residues 1-222, molecular weight=56 KDa) of the p75 receptor, originally obtained from Chiron Corporation, Emeryville, Calif., but also commercially available from Austral Biologicals, Inc. (San Diego, Calif.), on plastic 96-well microtiter plates (Immulon 11 Dynatech). The wells are coated with 50 μL/well of 20 μg/mL streptavidin in a […] (DPBS). The plates are then incubated at room temperature for 6 hours. The excess streptavidin is then poured out, the wells are washed with a 0.1% solution of bovine serum albumin (BSA) in DPBS. To each well is then added 50 μg/mL of a DPBS solution containing the truncated p75 receptor, which has previously been reacted with biotin by standard procedures. The plates are then incubated at room temperature for 2 hours and washed with 0.2% BSA/DPBS. To each well is added 98 μL of 2 nM ^125 I-NGF, followed by 2 μL/well of a concentration of test compound that is 50 times greater than the desired final test concentration. The plates are incubated for 2 hours at room temperature. The assay is read as the IC50, the concentration of compound that blocks 50% of the binding of ^125 I-NGF to the p75 receptor. […]

T1 sequence (P01138 122-241): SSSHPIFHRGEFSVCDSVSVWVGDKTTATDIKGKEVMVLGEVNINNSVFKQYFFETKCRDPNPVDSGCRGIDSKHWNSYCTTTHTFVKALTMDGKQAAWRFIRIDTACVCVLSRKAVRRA

SMILES	IC50 [nM]
O=C(O)c1ccc2c(=O)n3nc(C(=O)O)cc3[nH]c2c1 [H H CO2 H]	1100
Cn1c2ccc(NC(=O)c3ccc(Cl)c(Cl)c3)cc2c(=O)n2nc(C(=O)O)cc12 [Example 3f, 7-[(3,4-Dichlorobenzoyl)amino]-4,9-dihydro-4-methyl-9-oxopyrazolo[5,1-b]quinazoline-2-carboxylic acid]	844
CC(=O)Nc1ccc2c(c1)c(=O)n1nc(C(=O)O)cc1n2C [Me CH3 CONH H]	1700
Cn1c2ccc(NC(=O)c3ccc(C(F)(F)F)cc3)cc2c(=O)n2nc(C(=O)O)cc12 [Example 3n, 4,9-Dihydro-4-methyl-9-oxo-7-[[(4-trifluoromethyl)benzoyl]amino]pyrazolo [5,1-b]quinazoline-2-carboxylic acid]	2570
Cc1ccc2[nH]c3cc(C(=O)O)nn3c(=O)c2c1 [H Me H]	12900
Cn1c2ccccc2c(=O)n2nc(C(=O)O)cc12 [Me H H]	30800
Cn1c2ccc(NC(=O)c3cccs3)cc2c(=O)n2nc(C(=O)O)cc12 [Example 3a, 4,9-Dihydro-4-methyl-9-oxo-7-[(2-thienylcarbonyl)amino]pyrazolo[5,1-b]quinazoline-2-carboxylic acid]	690
Cc1ccc2c(c1)c(=O)n1nc(C(=O)O)cc1n2C [Me Me H]	9700
Cc1ccc(C(=O)Nc2ccc3c(c2)c(=O)n2nc(C(=O)O)cc2n3C)cc1 [Example 7, 4,9-Dihydro-4-methyl-9-oxo-7-[(methylbenzoyl)amino]-pyrazolo[5,1-b]quinazoline-2-carboxylic acid; triethanolamine salt (1:1)]	1160
COc1ccc(C(=O)Nc2ccc3c(c2)c(=O)n2nc(C(=O)O)cc2n3C)cc1 [Example 3c, 4,9-Dihydro-4-methyl-9-oxo-7-[(4-methoxybenzoyl)amino]-pyrazolo[5,1-b]quinazoline-2-carboxylic acid]	10000
Cn1c2ccc(NC(=O)Nc3ccccc3)cc2c(=O)n2nc(C(=O)O)cc12 [Example 3g]	3880
Cn1c2ccc(NC(=O)CCc3ccccc3)cc2c(=O)n2nc(C(=O)O)cc12 [Example 3h, 4,9-Dihydro-4-methyl-9-oxo-7[(1-oxo-3-phenylpropyl) -amino]pyrazolo [5,1-b]quinazoline-2-carboxylic acid]	1710
Cn1c2ccc(N)cc2c(=O)n2nc(C(=O)O)cc12 [Example 1, 7-Amino-4,9-dihydro-4-methyl-9-oxopyrazolo[5,1-b]-quinazoline-2-carboxylic acid]	1900
Cn1c2ccc(NC(=O)C34CC5CC(CC(C5)C3)C4)cc2c(=O)n2nc(C(=O)O)cc12 [Example 3m, 4,9-Dihydro-4-methyl-9-oxo-7-[(tricyclo[3.3.1.1^3,7]-dec-1-ylcarbonyl)amino]pyrazolo[5,1-b]quinazoline-2-carboxylic acid]	2230
Cc1ccccc1C(=O)Nc1ccc2c(c1)c(=O)n1nc(C(=O)O)cc1n2C [Example 3r, 4,9-Dihydro-4-methyl-7-[(2-methylbenzoyl)amino]-9-oxopyrazolo[5,1-b]quinazoline-2-carboxylic acid]	> 10000
Cc1cccc(C(=O)Nc2ccc3c(c2)c(=O)n2nc(C(=O)O)cc2n3C)c1 [Example 3p, 4,9-Dihydro-4-methyl-7-[(3-methylbenzoyl)amino]-9-oxopyrazolo[5,1-b]quinazoline-2-carboxylic acid]	748
Cn1c2ccc(NC(=O)CC(=O)O)cc2c(=O)n2nc(C(=O)O)cc12 [Example 3v, 7-[(Carboxyacetyl)amino]-4,9-dihydro-4-methyl-9-oxopyrazolo[5,1-b]quinazoline-2-carboxylic acid]	1150
Cn1c2ccc(NC(=O)c3ccc(C(C)(C)C)cc3)cc2c(=O)n2nc(C(=O)O)cc12 [Example 3l, 7-[(4-tert-Butylbenzoyl)amino]-4,9-dihydro-4-methyl-9-oxopyrazolo[5,1-b]quinazoline-2-carboxylic acid]	862

The next compounds have a lower IC50 than those just listed; values first:

IC50 [nM]	SMILES
180	Cc1ccc(C(=O)Nc2ccc3c(c2)c(=O)n2nc(C(=O)O)cc2n3C)cc1 [Example 3b, 4,9-Dihydro-4-methyl-9-oxo-7-[(4-methylbenzoyl)amino]-pyrazolo[5,1-b]quinazoline-2-carboxylic acid]
36	Cn1c2ccc(NC(=O)CCCC(=O)O)cc2c(=O)n2nc(C(=O)O)cc12 [Example 3x, 7-[(4-Carboxy-1-oxobutyl)amino]-4,9-dihydro-4-methyl-9-oxopyrazolo[5,1-b]quinazoline-2-carboxylic acid]
228	Cn1c2ccc(NC(=O)c3ccccc3)cc2c(=O)n2nc(C(=O)O)cc12 [Example 3, 7-(Benzoylamino)-4,9-dihydro-4-methyl-9-oxopyrazolo-[5,1-b]quinazoline-2-carboxylic acid]
431	Cn1c2ccc(NC(=O)c3ccc4ccccc4c3)cc2c(=O)n2nc(C(=O)O)cc12 [Example 3i]
472	Cn1c2ccc(NC(=O)c3ccc(I)cc3)cc2c(=O)n2nc(C(=O)O)cc12 [Example 3j, 4,9-Dihydro-7-[(4-iodobenzoyl)amino]-4-methyl-9-oxopyrazolo[5,1-b]quinazoline-2-carboxylic acid]
338	Nc1ccc2[nH]c3cc(C(=O)O)nn3c(=O)c2c1 [H NH2 H]
166	Cn1c2ccc(NC(=O)c3ccc(C(=O)O)cc3)cc2c(=O)n2nc(C(=O)O)cc12 [Example 3t]
222	Cn1c2ccc(NC(=O)c3ccc(-c4ccccc4)cc3)cc2c(=O)n2nc(C(=O)O)cc12 [Example 3q, 7-[[(1,1'-Biphenyl)-4-ylcarbonyl]amino]-4,9-dihydro-4-methyl-9-oxopyrazolo[5,1-b]quinazoline-2-carboxylic acid]
229	Cn1c2ccc(NC(=O)c3ccc([N+](=O)[O-])cc3)cc2c(=O)n2nc(C(=O)O)cc12 [Example 3k, 4,9-Dihydro-4-methyl-7-[(4-nitrobenzoyl)amino]-9-oxopyrazolo[5,1-b]quinazoline-2-carboxylic acid]
250	Cn1c2ccc(NC(=O)c3ccc(Cl)cc3)cc2c(=O)n2nc(C(=O)O)cc12 [Example 3d, 7-[(4-Chlorobenzoyl)amino]-4,9-dihydro-4-methyl-9-oxopyrazolo [5,1-b]quinazoline-2-carboxylic acid]
568	Cn1c2ccc(NC(=O)Cc3ccccc3)cc2c(=O)n2nc(C(=O)O)cc12 [Example 3e, 4,9-Dihydro-4-methyl-9-oxo-7-[(phenylacetyl)aminol]-pyrazolo[5,1-b]quinazoline-2-carboxylic acid]
266	Cn1c2ccc(NC(=O)c3ccc(F)cc3)cc2c(=O)n2nc(C(=O)O)cc12 [Example 3s, 4,9-Dihydro-7-[(4-fluorobenzoyl)amino]-4-methyl-9-oxopyrazolo[5,1-b]quinazoline-2-carboxylic acid]
116	Cn1c2ccc(NC(=O)CCC(=O)O)cc2c(=O)n2nc(C(=O)O)cc12 [Example 3w, 7-[(3-Carboxy-1-oxopropyl)amino]-4,9-dihydro-4-methyl-9-oxopyrazolo[5,1-b]qruinazoline-2-carboxylic acid]
~200	Cc1ccc(C(=O)Nc2ccc3c(c2)c(=O)n2nc(C(=O)O)cc2n3C)cc1I [Example 3u, 4,9-Dihydro-7-[(3-iodo-4-methylbenzoyl)amino]-4-methyl-9-oxopyrazolo[5,1-b]quinazoline-2-carboxylic acid]

Molecular target: T2, extracellular domain of the p75 receptor (Homo sapiens, UniProt P01138)
T2 construct: purchased Chiron Corporation, Emeryville, Calif; (originally); also commercially available from Austral Biologicals, Inc. (San Diego, Calif.)
Test: as above
Conditions: FIG. 1, result in words
Experimental: as §2

T2 sequence (P01138 122-241): as above

SMILES	prevention of binding of ^125 I-NGF to the extracellular domain of p75
Cn1c2ccc(NC(=O)c3ccccc3)cc2c(=O)n2nc(C(=O)O)cc12 [Example 3, 7-(Benzoylamino)-4,9-dihydro-4-methyl-9-oxopyrazolo-[5,1-b]quinazoline-2-carboxylic acid]	prevents the binding of ^125 I-NGF to the extracellular domain of p75
